Experimental data: ChEMBL document CHEMBL4806959, “Antagonistic peptides for frizzled-1 and frizzled-2” (2015)
Active and inactive are the calls of the source. The rule behind the calls is not given here. Residues, ends and D or L forms follow the SMILES beside them.

What was measured:
Frizzled-2 [1] = molecular target: T1, Frizzled-2 (Homo sapiens, UniProt Q14332); test: Antagonist activity at Wnt3a-stimulated frizzled-2 (unknown origin) expressed in human HEK293superTOP flash cells incubated for 24 hrs by luciferase reporter gene assay; assay type: functional, cell-based; settings: HEK293
Target sequence in this assay (Q14332 24-565 limits assumed): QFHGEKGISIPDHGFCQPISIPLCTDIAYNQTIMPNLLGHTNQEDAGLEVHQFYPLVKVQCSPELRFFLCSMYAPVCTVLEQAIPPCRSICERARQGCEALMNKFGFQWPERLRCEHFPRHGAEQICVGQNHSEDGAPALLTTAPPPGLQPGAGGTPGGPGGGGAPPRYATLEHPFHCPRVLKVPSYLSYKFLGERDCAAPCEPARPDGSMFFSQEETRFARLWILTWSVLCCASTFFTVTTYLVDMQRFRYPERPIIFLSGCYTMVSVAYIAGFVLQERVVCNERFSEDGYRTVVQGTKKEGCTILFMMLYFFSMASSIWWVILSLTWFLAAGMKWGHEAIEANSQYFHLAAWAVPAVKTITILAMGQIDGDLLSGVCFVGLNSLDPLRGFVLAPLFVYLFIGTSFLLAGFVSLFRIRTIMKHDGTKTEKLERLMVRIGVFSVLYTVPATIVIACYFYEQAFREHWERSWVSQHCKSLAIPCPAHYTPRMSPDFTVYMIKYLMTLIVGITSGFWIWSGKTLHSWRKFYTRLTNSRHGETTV

[2] = molecular target: Frizzled-1 (Homo sapiens) (UniProt Q9UP38); test: Agonist activity at frizzled-1 (unknown origin) expressed in human HEK293superTOP flash cells by luciferase reporter gene assay; assay type: functional, cell-based; settings: HEK293
Chain of Frizzled-1 (Homo sapiens) (Q9UP38 70-647 limits assumed): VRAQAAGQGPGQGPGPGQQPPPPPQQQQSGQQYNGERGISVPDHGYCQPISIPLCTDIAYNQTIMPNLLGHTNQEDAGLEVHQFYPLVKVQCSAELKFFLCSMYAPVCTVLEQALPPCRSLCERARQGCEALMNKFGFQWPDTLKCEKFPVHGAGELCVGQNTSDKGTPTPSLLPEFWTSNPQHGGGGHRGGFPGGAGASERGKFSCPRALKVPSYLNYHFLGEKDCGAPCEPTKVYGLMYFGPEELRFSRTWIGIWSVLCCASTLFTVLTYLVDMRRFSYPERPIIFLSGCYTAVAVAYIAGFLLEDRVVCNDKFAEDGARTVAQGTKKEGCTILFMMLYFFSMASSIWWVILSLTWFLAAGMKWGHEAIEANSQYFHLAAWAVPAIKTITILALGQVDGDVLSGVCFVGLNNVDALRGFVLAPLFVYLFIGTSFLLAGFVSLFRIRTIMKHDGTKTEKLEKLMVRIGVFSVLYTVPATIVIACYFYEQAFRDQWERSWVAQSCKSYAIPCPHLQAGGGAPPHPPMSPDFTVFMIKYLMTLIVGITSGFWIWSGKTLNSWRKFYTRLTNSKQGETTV

[3] = molecular target: Frizzled-1 (Homo sapiens) (UniProt Q9UP38); test: Antagonist activity at Wnt3a-stimulated frizzled-1 (unknown origin) expressed in human HEK293superTOP flash cells incubated for 24 hrs by luciferase reporter gene assay; assay type: functional, cell-based; settings: HEK293
Frizzled-2 [4] = molecular target: T1, Frizzled-2; test: Agonist activity at frizzled-2 (unknown origin) expressed in human HEK293superTOP flash cells by luciferase reporter gene assay; assay type: functional, cell-based; settings: hek293
Target sequence in this assay (Q14332 whole entry): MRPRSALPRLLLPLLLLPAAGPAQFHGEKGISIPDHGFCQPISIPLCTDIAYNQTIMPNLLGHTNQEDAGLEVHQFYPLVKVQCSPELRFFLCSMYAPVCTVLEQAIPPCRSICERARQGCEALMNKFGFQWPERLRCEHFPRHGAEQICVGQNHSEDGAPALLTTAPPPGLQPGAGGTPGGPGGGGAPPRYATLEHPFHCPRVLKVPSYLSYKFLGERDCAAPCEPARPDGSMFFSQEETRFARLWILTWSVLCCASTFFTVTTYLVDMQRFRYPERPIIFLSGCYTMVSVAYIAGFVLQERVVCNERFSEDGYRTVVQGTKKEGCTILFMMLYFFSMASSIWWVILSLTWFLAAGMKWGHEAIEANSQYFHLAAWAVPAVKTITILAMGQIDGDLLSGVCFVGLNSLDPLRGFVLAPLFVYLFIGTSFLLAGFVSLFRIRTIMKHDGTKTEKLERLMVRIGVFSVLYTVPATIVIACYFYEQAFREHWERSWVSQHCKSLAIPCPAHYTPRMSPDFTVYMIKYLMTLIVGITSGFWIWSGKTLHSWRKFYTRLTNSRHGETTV

Frizzled-2 [5] = molecular target: T1, Frizzled-2; test: Antagonist activity at Wnt3a-stimulated frizzled-2 (unknown origin) expressed in human HEK293superTOP flash cells at 10 nM incubated for 24 hrs by luciferase reporter gene assay; assay type: functional, cell-based; settings: HEK293
Target sequence in this assay (Q14332 24-565 limits assumed): as the sequence (Q14332 24-565 limits assumed) above

[6] = molecular target: Frizzled-1 (Homo sapiens) (UniProt Q9UP38); test: Antagonist activity at Wnt3a-stimulated frizzled-1 (unknown origin) expressed in human HEK293superTOP flash cells at 10 nM incubated for 24 hrs by luciferase reporter gene assay; assay type: functional, cell-based; settings: HEK293
[7] = molecular target: Frizzled-2 (Rattus norvegicus) (UniProt Q08464); test: Antagonist activity at Wnt3a-stimulated rat frizzled-2 expressed in African green monkey COS7 cells up to 10 uM incubated for 24 hrs by luciferase reporter gene assay; assay type: cell-based; settings: dose microM <=10, time 24.0 hrs
Chain of Frizzled-2 (Rattus norvegicus) (Q08464 29-570 limits assumed): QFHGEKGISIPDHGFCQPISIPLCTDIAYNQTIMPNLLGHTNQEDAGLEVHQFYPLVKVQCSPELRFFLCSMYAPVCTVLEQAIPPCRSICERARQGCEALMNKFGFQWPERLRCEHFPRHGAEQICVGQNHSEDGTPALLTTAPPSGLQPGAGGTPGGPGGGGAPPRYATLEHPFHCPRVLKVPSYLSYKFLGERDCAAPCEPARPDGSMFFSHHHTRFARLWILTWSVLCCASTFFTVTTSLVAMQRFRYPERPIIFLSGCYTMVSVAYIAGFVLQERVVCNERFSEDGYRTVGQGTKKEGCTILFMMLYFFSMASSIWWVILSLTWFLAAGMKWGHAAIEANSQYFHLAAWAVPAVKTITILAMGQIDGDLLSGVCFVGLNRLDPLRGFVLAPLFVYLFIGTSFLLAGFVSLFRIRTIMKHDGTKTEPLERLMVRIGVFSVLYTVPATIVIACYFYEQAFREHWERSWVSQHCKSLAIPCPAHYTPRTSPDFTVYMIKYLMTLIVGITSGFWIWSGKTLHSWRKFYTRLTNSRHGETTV

[8] = molecular target: Frizzled-2 (Rattus norvegicus) (UniProt Q08464); test: Antagonist activity at Wnt3a-stimulated rat frizzled-2 expressed in CHO cells up to 10 uM incubated for 24 hrs by luciferase reporter gene assay; assay type: cell-based; settings: dose microM <=10, time 24.0 hrs
[9] = molecular target: Frizzled-1 (Rattus norvegicus) (UniProt Q08463); test: Antagonist activity at Wnt3a-stimulated rat frizzled-1 expressed in CHO cells up to 10 uM incubated for 24 hrs by luciferase reporter gene assay; assay type: cell-based; settings: dose microM <=10, time 24.0 hrs
Chain of Frizzled-1 (Rattus norvegicus) (Q08463 whole entry): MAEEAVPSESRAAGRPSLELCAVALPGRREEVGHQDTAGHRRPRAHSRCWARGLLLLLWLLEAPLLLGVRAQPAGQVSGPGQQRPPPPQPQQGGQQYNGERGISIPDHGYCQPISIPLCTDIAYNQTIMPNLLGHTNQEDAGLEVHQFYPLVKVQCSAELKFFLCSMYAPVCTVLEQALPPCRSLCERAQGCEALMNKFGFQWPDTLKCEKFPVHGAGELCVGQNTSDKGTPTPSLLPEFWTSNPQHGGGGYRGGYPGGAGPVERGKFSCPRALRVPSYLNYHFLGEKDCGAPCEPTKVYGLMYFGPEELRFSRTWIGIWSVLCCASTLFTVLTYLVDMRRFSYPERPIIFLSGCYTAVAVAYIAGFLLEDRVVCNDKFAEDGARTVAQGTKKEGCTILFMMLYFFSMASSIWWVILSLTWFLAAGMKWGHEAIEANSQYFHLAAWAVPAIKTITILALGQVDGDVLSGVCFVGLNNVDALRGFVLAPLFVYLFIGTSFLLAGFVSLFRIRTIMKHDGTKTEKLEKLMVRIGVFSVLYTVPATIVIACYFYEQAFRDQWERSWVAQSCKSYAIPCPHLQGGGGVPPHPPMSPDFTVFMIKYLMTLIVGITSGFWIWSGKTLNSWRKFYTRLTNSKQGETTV

[10] = molecular target: Frizzled-1 (Rattus norvegicus) (UniProt Q08463); test: Antagonist activity at Wnt3a-stimulated rat frizzled-1 expressed in African green monkey COS7 cells up to 10 uM incubated for 24 hrs by luciferase reporter gene assay; assay type: cell-based; settings: dose microM <=10, time 24.0 hrs
[11] = molecular target: Frizzled-2 (Rattus norvegicus) (UniProt Q08464); test: Agonist activity at rat frizzled-2 expressed in human HEK293superTOP flash cells by luciferase reporter gene assay; assay type: cell-based; settings: HEK293
[12] = molecular target: Frizzled-1 (Rattus norvegicus) (UniProt Q08463); test: Agonist activity at rat frizzled-1 expressed in human HEK293superTOP flash cells by luciferase reporter gene assay; assay type: cell-based; settings: HEK293
[13] = molecular target: Frizzled-2 (Rattus norvegicus) (UniProt Q08464); test: Agonist activity at rat frizzled-2 expressed in African green monkey COS7 cells by luciferase reporter gene assay; assay type: cell-based
[14] = molecular target: Frizzled-1 (Rattus norvegicus) (UniProt Q08463); test: Agonist activity at rat frizzled-1 expressed in CHO cells by luciferase reporter gene assay; assay type: cell-based
[15] = molecular target: Frizzled-1 (Rattus norvegicus) (UniProt Q08463); test: Agonist activity at rat frizzled-1 expressed in African green monkey COS7 cells by luciferase reporter gene assay; assay type: cell-based
[16] = molecular target: Frizzled-2 (Rattus norvegicus) (UniProt Q08464); test: Agonist activity at rat frizzled-2 expressed in CHO cells by luciferase reporter gene assay; assay type: cell-based

Row | Compound | inhibition (Frizzled-2 [1]) | Activity [2] | inhibition [3] | EC50 (Frizzled-2 [4]) | inhibition (Frizzled-2 [5]) | inhibition [6] | inhibition [7] | inhibition [8] | inhibition [9] | inhibition [10] | also measured
1 | CC(=O)N[C@@H](CS)C(=O)N[C@@H](CCCCN)C(=O)N[C@@H](CS)C(=O)N[C@@H](Cc1cnc[nH]1)C(=O)NCC(=O)N[C@H](C(=O)N[C@@H](CO)C(=O)NCC(=O)N[C@@H](CO)C(=O)N[C@@H](CS)C(=O)N[C@H](C(=O)N[C@H](C(=O)N[C@@H](CCCCN)C(=O)N[C@H](C(=O)N[C@@H](CS)C(=O)N[C@@H](Cc1c[nH]c2ccccc12)C(N)=O)[C@@H](C)O)C(C)C)[C@@H](C)O)C(C)C (Ac-CKCHGVSGSCTVKTCW-NH2) | inactive | inactive | inactive | Not Active |  |  |  |  |  |  | 
2 | CSCC[C@H](NC(=O)CNC(=O)[C@H](CO)NC(=O)[C@H](CCCCN)NC(=O)[C@H](CC(N)=O)NC(=O)[C@H](CS)NC(C)=O)C(=O)N[C@@H](CC(=O)O)C(=O)NCC(=O)N[C@@H](CS)C(=O)N[C@@H](CCC(=O)O)C(=O)N[C@@H](CC(C)C)C(N)=O (Ac-CNKSGMDGCEL-NH2) | inactive | inactive | inactive | Not Active |  |  |  |  |  |  | 
3 | CSCC[C@H](NC(=O)CNC(=O)[C@H](CCC(=O)O)NC(=O)[C@H](CO)NC(=O)[C@@H](NC(=O)[C@H](CCCCN)NC(=O)[C@H](CC(N)=O)NC(=O)[C@H](CS)NC(C)=O)[C@@H](C)O)C(=O)N[C@@H](CC(=O)O)C(=O)NCC(=O)N[C@@H](CS)C(=O)N[C@@H](C)C(=O)N[C@@H](C)C(N)=O (Ac-CNKTSEGMDGCAA-NH2) |  |  |  |  | inactive | inactive | inactive | inactive | inactive | inactive | 
4 | CC(=O)N[C@@H](CC(=O)O)C(=O)N[C@@H](CC(C)C)C(=O)N[C@H](C(=O)N[C@@H](Cc1ccc(O)cc1)C(=O)N[C@@H](Cc1ccccc1)C(=O)N[C@@H](CCC(=O)O)C(=O)N[C@@H](CC(C)C)C(=O)N[C@@H](CO)C(=O)N1CCC[C@H]1C(=O)N[C@@H](CC(=O)O)C(=O)N[C@@H](Cc1ccccc1)C(=O)N[C@@H](CS)C(=O)N[C@@H](C)C(N)=O)C(C)C (Ac-DLVYFELSPDFCA-NH2) | inactive | inactive | inactive | Not Active |  |  |  |  |  |  | 
5 | CC[C@H](C)[C@H](NC(=O)CNC(C)=O)C(=O)N[C@@H](CCCCN)C(=O)N[C@@H](CCC(=O)O)C(=O)N[C@@H](CS)C(=O)N[C@@H](CCC(N)=O)C(=O)N[C@@H](Cc1ccc(O)cc1)C(=O)N[C@@H](CCC(N)=O)C(=O)N[C@@H](Cc1ccccc1)C(=O)N[C@@H](CCCNC(=N)N)C(=O)N[C@@H](Cc1c[nH]cn1)C(=O)N[C@@H](CCCNC(=N)N)C(=O)N[C@@H](CCCNC(=N)N)C(=O)N[C@@H](Cc1c[nH]c2ccccc12)C(=O)N[C@@H](CC(N)=O)C(=O)N[C@@H](CS)C(=O)N[C@@H](CO)C(=O)N[C@H](C(=O)N[C@H](C(=O)N[C@@H](CC(=O)O)C(N)=O)C(C)C)[C@@H](C)O (Ac-GIKECQYQFRHRRWNCSTVD-NH2) |  |  |  |  |  |  |  |  |  |  | Activity [11]: inactive; Activity [12]: inactive; Activity [13]: inactive; Activity [14]: inactive; Activity [15]: inactive; Activity [16]: inactive
6 | CC(=O)NCC(=O)N[C@@H](CO)C(=O)N[C@@H](CCCCN)C(=O)NCC(=O)N[C@H](C(=O)N[C@@H](CCC(N)=O)C(=O)NCC(=O)N[C@@H](CCCNC(=N)N)C(=O)N[C@@H](C)C(=O)N[C@@H](CS)C(=O)N[C@@H](CC(N)=O)C(N)=O)[C@@H](C)O (Ac-GSKGTQGRACN-NH2) | inactive | inactive | inactive | Not Active |  |  |  |  |  |  | 
7 | CC[C@H](C)[C@H](NC(C)=O)C(=O)N[C@@H](CCC(=O)O)C(=O)N[C@@H](CCC(=O)O)C(=O)N[C@@H](CS)C(=O)N[C@@H](CCC(N)=O)C(=O)N[C@@H](Cc1cnc[nH]1)C(=O)N[C@@H](CCC(N)=O)C(=O)N[C@@H](Cc1ccccc1)C(=O)N[C@@H](CCCNC(=N)N)C(=O)N[C@@H](CC(=O)O)C(=O)N[C@@H](CCCNC(=N)N)C(=O)N[C@@H](CCCNC(=N)N)C(=O)N[C@@H](Cc1c[nH]c2ccccc12)C(=O)N[C@@H](CC(N)=O)C(=O)N[C@@H](CS)C(N)=O (Ac-IEECQHQFRDRRWNC-NH2) | inactive | inactive | inactive | Not Active |  |  |  |  |  |  | 
8 | CSCC[C@H](NC(C)=O)C(=O)N[C@@H](CC(N)=O)C(=O)N[C@@H](CCCNC(=N)N)C(=O)N[C@@H](Cc1cnc[nH]1)C(=O)N[C@@H](CC(N)=O)C(=O)N[C@@H](CC(N)=O)C(=O)N[C@@H](CCC(=O)O)C(=O)N[C@@H](C)C(=O)NCC(=O)N[C@@H](CCCNC(=N)N)C(N)=O (Ac-MNRHNNEAGR-NH2) | inactive | inactive | inactive | Not Active |  |  |  |  |  |  | 

The next lines start with results.

Row | inhibition (Frizzled-2 [1]) | Activity [2] | inhibition [3] | EC50 (Frizzled-2 [4]) | inhibition (Frizzled-2 [5]) | inhibition [6] | inhibition [7] | inhibition [8] | inhibition [9] | inhibition [10] | Compound | also measured
9 |  |  |  |  | inactive | inactive | inactive | inactive | inactive | inactive | CSCC[C@H](NC(=O)CNC(=O)[C@H](CCC(=O)O)NC(=O)[C@H](CO)NC(=O)[C@@H](NC(=O)[C@H](CCCCN)NC(=O)[C@H](CC(N)=O)NC(=O)[C@H](CS)NC(C)=O)[C@@H](C)O)C(=O)N[C@@H](CC(=O)O)C(=O)NCC(=O)N[C@@H](CS)C(=O)N[C@@H](C)C(=O)N[C@@H](CC(C)C)C(N)=O (Ac-CNKTSEGMDGCAL-NH2) | 
10 |  |  |  |  | inactive | inactive | inactive | inactive | inactive | inactive | CSCC[C@H](NC(=O)CNC(=O)[C@H](CCC(=O)O)NC(=O)[C@H](CO)NC(=O)[C@@H](NC(=O)[C@H](CCCCN)NC(=O)[C@H](CC(N)=O)NC(=O)[C@H](CS)NC(C)=O)[C@@H](C)O)C(=O)N[C@@H](CC(=O)O)C(=O)NCC(=O)N[C@@H](CS)C(=O)N[C@@H](CCC(=O)O)C(=O)N[C@@H](C)C(N)=O (Ac-CNKTSEGMDGCEA-NH2) | 
11 | inactive | inactive | inactive | Not Active |  |  |  |  |  |  | CC[C@H](C)[C@H](NC(=O)[C@H](CC(N)=O)NC(=O)[C@H](CC(=O)O)NC(=O)[C@H](CO)NC(=O)[C@H](CS)NC(=O)[C@H](CCC(=O)O)NC(=O)CNC(=O)[C@H](Cc1c[nH]c2ccccc12)NC(=O)[C@H](CCC(=O)O)NC(=O)[C@H](Cc1c[nH]c2ccccc12)NC(=O)[C@H](CC(=O)O)NC(=O)CNC(C)=O)C(N)=O (Ac-GDWEWGECSDNI-NH2) | 
12 |  |  |  |  | inactive | inactive | inactive | inactive | inactive | inactive | CC[C@H](C)[C@H](NC(=O)CNC(=O)[C@H](Cc1cnc[nH]1)NC(=O)[C@H](CO)NC(=O)[C@H](CO)NC(=O)[C@@H](NC(=O)[C@H](CC(N)=O)NC(=O)[C@@H](N)CS)C(C)C)C(=O)N[C@@H](CC(=O)O)C(=O)NCC(=O)N[C@@H](CS)C(=O)N[C@@H](CC(=O)O)C(=O)N[C@@H](CC(C)C)C(=O)O (H-CNVSSHGIDGCDL-OH) | 
